The values that follow come from patent US12351576B2, “FGFR inhibitor, preparation method therefor and application thereof” (Abbisko Therapeutics Co., Ltd., priority 2018, dated 2025).

The target in one assay is FGFR2 (Homo sapiens (Human), UniProt P21802). The experiment in a line: In vitro biochemical kinase assay (Caliper Assay), FGFR2. The conditions noted are these: enzyme 2.5 nM, ATP 1 μM, 40 minutes; read-out: Enzymatic activity IC50(nM) FGFR2. The protocol:
(§1) I. In Vitro Biochemical Kinase Assay of FGFR 1˜3
(§2) Caliper Assay was used in the present invention to determine the inhibitory activities of the compounds against FGFR1, FGFR2, and FGFR3. The specific experimental procedure was as follows: • 1. The kinase reaction in the present invention was carried out in 384-well plates, the kinase(Carna) at a certain concentration and ATP at a certain concentration and 1 μM of peptide FAM-P22 (GL Biochem, Cat. No. 112393)) was incubated to react for a certain time at 28° C. in a reaction system consisting of 50 mM HEPES, […], 0.0015% Brij-35 and basic kinase buffer; for FGFR1, the enzyme concentration was 0.25 nM and ATP concentration was 382 μM and the reaction time was 20 minutes; for FGFR2, the enzyme concentration was 2.5 nM, ATP concentration was 1 μM, and the reaction time was 40 minutes; for FGFR3, the enzyme concentration was 8 nM, ATP concentration was 4.7 μM, and the reaction time was 30 minutes: • 2. The reaction was terminated with a stop solution (100 mM HEPES, pH 7.5, 0.2% Caliper coating, reagent, 50 mM EDTA and 0.015% Brij35); • 3. The plate with the terminated kinase reaction was transferred to the Caliper workstation to read the data; • 4. the phosphorylated and unphosphorylated peptides were separated by the Caliper microfluid migration shift technique, and the analyte was transferred by a constant buffer flow through the chip, the migration of the substrate peptide was monitored by the labeled fluorescent signal, and the kinase activity was calculated by the amount of the phosphate-based peptide formed. • 5. IC50 was determined by non-linear regression analysis of percent inhibition at different concentration level of the compound.

A further assay concerns the target FGFR1 (Homo sapiens (Human), UniProt P11362). As to the kind of experiment: In vitro biochemical kinase assay (Caliper Assay), FGFR1. The conditions noted are these: enzyme 0.25 nM, ATP 382 μM, 20 minutes; read-out: Enzymatic activity IC50(nM) FGFR1. As for the experimental part: as §1, §2
For assay [1], the system named is Snu-16 gastric cancer cells (FGFR2 gene amplification). As to the kind of experiment: Cell proliferation assay (Cell Titer Glo), Snu-16. The conditions noted are these: Homo sapiens, SNU-16, 72 h, Snu-16 cells, 3 days, CTG; read-out: Cellular IC50 (nM) Sun16. In kind it is cell-based. As for the experimental part:
(§3) II. Cell Proliferation Assay (Cell Titer Glo(CTG) Assay)
(§4) The FGFR signal pathway dependent inhibitory effect of the compound in the present invention on cell proliferation was assessed by survival test using CTG reagent (Promega, 4G7573). Cell lines representative of a variety of tumor types, including H1581 lung cancer cells (FGFR1 gene amplification), Snu-16 gastric cancer cells (FGFR2 gene amplification), and RT112 bladder carcinoma cells (FGFR3-TACC3 fusion) from Nanjing Cobioer Biosciences, were selected for the assay. The specific experimental procedure was as follows: • 1. 90 μL of cells were seeded into a 96-well plate processed with TCM (Costar 43904), and incubated overnight at 37° C. in a 5% CO2 incubator; afterwards, 10 μL of the culture medium containing the compound at 10 fold of its final concentration was added; • 2. The dose-dependent effect was evaluated by a serial dilution of the test compound, starting from 10 μM or a lower concentration. • 3. The cells were incubated at 37° C. under 5% C02 for 3 days, then added 50 μL CTG, and read the data with Envision (Pelkin Elmer) to quantify the ATP level in the cells. The ATP levels in cells with treatment of inhibitor at a variety of concentrations were compared with those in cells of the control group (in which DMSO was added into the medium) to evaluate the compound percent inhibition of cell proliferation/survival. • 4. The compound half growth inhibitory concentration (IC50) was determined in Graphpad Prism by 4-parameter curve fitting.
For orientation: ATP-based viability assays read luminescence as a measure of living cells.

Assay [2] relates to H1581 lung cancer cells (FGFR1 gene amplification). As to the kind of experiment: Cell proliferation assay (Cell Titer Glo), H1581. In kind it is cell-based. The conditions noted are these: Homo sapiens, NCI-H1581, 72 h, 3 days, CTG, read-out: Cellular IC50 (nM) H1581. The protocol:
as §3, §4

FGFR2, sequence (P21802 22-821): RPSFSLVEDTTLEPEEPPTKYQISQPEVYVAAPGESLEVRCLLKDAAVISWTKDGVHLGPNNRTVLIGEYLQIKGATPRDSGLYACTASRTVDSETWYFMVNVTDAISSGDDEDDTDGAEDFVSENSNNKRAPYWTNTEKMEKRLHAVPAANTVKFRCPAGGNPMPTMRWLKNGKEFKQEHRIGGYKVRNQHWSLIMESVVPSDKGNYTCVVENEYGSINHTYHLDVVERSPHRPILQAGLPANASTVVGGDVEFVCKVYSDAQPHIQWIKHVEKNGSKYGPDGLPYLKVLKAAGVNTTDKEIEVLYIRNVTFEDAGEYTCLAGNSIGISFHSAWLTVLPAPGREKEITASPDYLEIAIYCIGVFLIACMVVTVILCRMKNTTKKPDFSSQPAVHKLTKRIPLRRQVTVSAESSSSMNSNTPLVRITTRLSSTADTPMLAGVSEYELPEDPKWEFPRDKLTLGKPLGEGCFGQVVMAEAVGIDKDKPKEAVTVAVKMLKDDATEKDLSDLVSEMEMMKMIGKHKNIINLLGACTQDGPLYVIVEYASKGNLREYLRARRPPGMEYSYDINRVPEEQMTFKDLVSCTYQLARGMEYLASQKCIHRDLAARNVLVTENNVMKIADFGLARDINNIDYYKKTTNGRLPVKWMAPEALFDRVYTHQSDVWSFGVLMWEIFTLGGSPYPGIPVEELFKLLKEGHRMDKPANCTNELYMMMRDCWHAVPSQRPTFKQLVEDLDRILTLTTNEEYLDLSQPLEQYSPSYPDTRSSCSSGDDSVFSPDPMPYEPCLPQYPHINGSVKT
FGFR1, sequence (P11362 22-822): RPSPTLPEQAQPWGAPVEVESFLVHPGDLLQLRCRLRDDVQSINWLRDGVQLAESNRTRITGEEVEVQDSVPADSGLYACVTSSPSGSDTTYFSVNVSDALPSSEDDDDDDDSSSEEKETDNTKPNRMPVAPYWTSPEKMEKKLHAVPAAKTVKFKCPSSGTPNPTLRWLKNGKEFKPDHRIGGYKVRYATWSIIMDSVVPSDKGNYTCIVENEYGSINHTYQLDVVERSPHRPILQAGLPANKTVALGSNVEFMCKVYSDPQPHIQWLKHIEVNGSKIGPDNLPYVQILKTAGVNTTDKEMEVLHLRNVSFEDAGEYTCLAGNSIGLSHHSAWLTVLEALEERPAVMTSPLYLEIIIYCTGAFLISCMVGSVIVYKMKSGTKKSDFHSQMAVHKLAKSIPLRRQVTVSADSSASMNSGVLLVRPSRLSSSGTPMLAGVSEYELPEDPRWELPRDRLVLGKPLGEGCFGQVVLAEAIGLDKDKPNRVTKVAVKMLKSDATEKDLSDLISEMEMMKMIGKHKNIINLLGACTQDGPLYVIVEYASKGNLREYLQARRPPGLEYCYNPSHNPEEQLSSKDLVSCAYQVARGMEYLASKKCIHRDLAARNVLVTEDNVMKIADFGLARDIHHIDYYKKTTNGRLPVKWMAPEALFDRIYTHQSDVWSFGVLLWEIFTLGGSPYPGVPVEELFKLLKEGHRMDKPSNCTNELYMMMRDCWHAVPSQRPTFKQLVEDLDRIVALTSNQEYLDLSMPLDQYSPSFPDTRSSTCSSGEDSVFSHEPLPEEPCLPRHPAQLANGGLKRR

Regarding `CCn1c(=O)c(-c2c(Cl)c(OC)cc(OC)c2Cl)cc2cnc(-c3cn(C)nc3C)cc21` [Example 9, 3-(2,6-dichloro-3,5-dimethoxyphenyl)-7-(1,3-dimethyl-1H-pyrazol-4-yl)-1-ethyl-1,6-naphthyridin-2(1H)-one], the IC50 on FGFR2 was not above 5 nM; at FGFR1, 10 to 50 nM.
With `COc1cc(OC)c(F)c(-c2cc3cnc(-c4cnn(C)c4)cc3n(C(C)C)c2=O)c1F` [Example 26, 3-(2,6-difluoro-3,5-dimethoxyphenyl)-1-isopropyl-7-(1-methyl-1H-pyrazol-4-yl)-1,6-naphthyridin-2(1H)-one], the IC50 in assay [1] and in assay [2] was 10 to 50 nM throughout.
Turning to `COc1cc(OC)c(F)c(-c2cc3cnc(-c4cnn(CCN5CCOCC5)c4)cc3n(CC3CC3)c2=O)c1F` [Example 31, 1-(cyclopropylmethyl)-3-(2,6-difluoro-3,5-dimethoxyphenyl)-7-(1-(2-morpholinoethyl)-1H-pyrazol-4-yl)-1,6-naphthyridin-2(1H)-one], the concentration for half-maximal inhibition (IC50) in assay [1] was 10 to 50 nM; in assay [2] it was 50 to 500 nM.
In the case of `CCn1c(=O)c(-c2c(Cl)c(OC)cc(OC)c2Cl)cc2cnc(-c3cnn(CCN(C)C)c3C)cc21` [Example 52, 3-(2,6-dichloro-3,5-dimethoxyphenyl)-7-(1-(2-(dimethylamino)ethyl)-5-methyl-1H-pyrazol-4-yl)-1-ethyl-1,6-naphthyridin-2(1H)-one], the IC50 is 50 to 500 nM in assay [1] and more than 500 nM in assay [2].
Regarding `CCn1c(=O)c(-c2c(Cl)c(OC)cc(OC)c2Cl)cc2cnc(-c3cnn(CCC#N)c3C)cc21` [Example 51, 3-(4-(3-(2,6-dichloro-3,5-dimethoxyphenyl)-1-ethyl-2-oxo-1,2-dihydro-1,6-naphthyridin-7-yl)-5-methyl-1H-pyrazol-1-yl)propanenitrile], the IC50 is 50 to 500 nM in assay [1] and more than 500 nM in assay [2].
For `CCn1c(=O)c(-c2c(Cl)c(OC)cc(OC)c2Cl)cc2cnc(-c3cn(CCN4CCOCC4)nc3C)cc21` [Example 42, 3-(2,6-dichloro-3,5-dimethoxyphenyl)-1-ethyl-7-(3-methyl-1-(2-morpholinoethyl)-1H-pyrazol-4-yl)-1,6-naphthyridin-2(1H)-one] the same measures were 10 to 50 nM and 50 to 500 nM.
For `CCn1c(=O)c(-c2c(Cl)c(OC)cc(OC)c2Cl)cc2cnc(-c3ccc(C4(C#N)CCC4)nc3)cc21` [Example 12, 1-(5-(3-(2,6-dichloro-3,5-dimethoxyphenyl)-1-ethyl-2-oxo-1,2-dihydro-1,6-naphthyridin-7-yl)pyridin-2-yl)cyclobutane-1-carbonitrile] the same measures were 50 to 500 nM and more than 500 nM.
For `CCn1c(=O)c(-c2c(Cl)c(OC)cc(OC)c2Cl)cc2cnc(-c3cn(CCN(C)C)nc3C)cc21` [Example 45, 3-(2,6-dichloro-3,5-dimethoxyphenyl)-7-(1-(2-(dimethylamino)ethyl)-3-methyl-1H-pyrazol-4-yl)-1-ethyl-1,6-naphthyridin-2(1H)-one] the same measures were 10 to 50 nM and 50 to 500 nM.
In the case of `COc1cc(OC)c(F)c(-c2cc3cnc(-c4ccc(CC#N)cc4)cc3n(C3CCOC3)c2=O)c1F` (stereo not shown) [Example 41, 2-(4-(3-(2,6-difluoro-3,5-dimethoxyphenyl)-2-oxo-1-(tetrahydrofuran-3-yl)-1,2-dihydro-1,6-naphthyridin-7-yl)phenyl)acetonitrile], the IC50 in assay [1] and in assay [2] was 50 to 500 nM each time.
Turning to `COc1cc(OC)c(Cl)c(-c2cc3cnc(-c4cn(CCN5CCOCC5)nc4C)cc3n(C)c2=O)c1Cl` [Example 47, 3-(2,6-dichloro-3,5-dimethoxyphenyl)-1-methyl-7-(3-methyl-1-(2-morpholinoethyl)-1H-pyrazol-4-yl)-1,6-naphthyridin-2(1H)-one], the IC50 in assay [1] and in assay [2] was 50 to 500 nM throughout.
As to `CCn1c(=O)c(-c2c(Cl)c(OC)cc(OC)c2Cl)cc2cnc(-c3cn(CCC#N)nc3C)cc21` [Example 44, 3-(4-(3-(2,6-dichloro-3,5-dimethoxyphenyl)-1-ethyl-2-oxo-1,2-dihydro-1,6-naphthyridin-7-yl)-3-methyl-1H-pyrazol-1-yl)propanenitrile], the IC50 in assay [1] and in assay [2] was 50 to 500 nM in each case.
Take `COc1cc(OC)c(F)c(-c2cc3cnc(-c4cnccc4C)cc3n(C3CCOC3)c2=O)c1F` (stereo not shown) [Example 37, 3-(2,6-difluoro-3,5-dimethoxyphenyl)-7-(4-methylpyridin-3-yl)-1-(tetrahydrofuran-3-yl)-1,6-naphthyridin-2(1H)-one]: the IC50 was 50 to 500 nM in assay [1] and more than 500 nM in assay [2].
For `COc1cc(OC)c(F)c(-c2cc3cnc(-c4ccc(N5CC6CC5CO6)nc4)cc3n(C3CCOC3)c2=O)c1F` (stereo not shown) [Example 38, 7-(6-(2-oxa-5-azabicyclo[2.2.1]heptan-5-yl)pyridin-3-yl)-3-(2,6-difluoro-3,5-dimethoxyphenyl)-1-(tetrahydrofuran-3-yl)-1,6-naphthyridin-2(1H)-one] the same measures were not above 5 nM and 10 to 50 nM.
For `CCn1c(=O)c(-c2c(Cl)c(OC)cc(OC)c2Cl)cc2cnc(-c3cnn(CC#N)c3C)cc21` [Example 50, 2-(4-(3-(2,6-dichloro-3,5-dimethoxyphenyl)-1-ethyl-2-oxo-1,2-dihydro-1,6-naphthyridin-7-yl)-5-methyl-1H-pyrazol-1-yl)acetonitrile] the same measures were more than 500 nM and more than 500 nM.
For `COc1cc(OC)c(F)c(-c2cc3cnc(-c4ccncc4)cc3n(C3CCOC3)c2=O)c1F` (stereo not shown) [Example 39, 3-(2,6-difluoro-3,5-dimethoxyphenyl)-7-(pyridin-4-yl)-1-(tetrahydrofuran-3-yl)-1,6-naphthyridin-2(1H)-one] the same measures were 50 to 500 nM and 50 to 500 nM.
In the case of `COc1cc(OC)c(Cl)c(-c2cc3cnc(-c4ccc(C5(C#N)CCC5)nc4)cc3n(C)c2=O)c1Cl` [Example 20, 1-(5-(3-(2,6-dichloro-3,5-dimethoxyphenyl)-1-methyl-2-oxo-1,2-dihydro-1,6-naphthyridin-7-yl)pyridin-2-yl)cyclobutane-1-carbonitrile], the IC50 in assay [1] is 50 to 500 nM; in assay [2], more than 500 nM.
For `COc1cc(OC)c(Cl)c(-c2cc3cnc(-c4cnn(C)c4)cc3n(C3CCOC3)c2=O)c1` (stereo not shown) [Example 24, 3-(2-chloro-3,5-dimethoxyphenyl)-7-(1-methyl-1H-pyrazol-4-yl)-1-(tetrahydrofuran-3-yl)-1,6-naphthyridin-2(1H)-one] the same measures were 10 to 50 nM and 50 to 500 nM.
In the case of `CCn1c(=O)c(-c2c(Cl)c(OC)cc(OC)c2Cl)cc2cnc(-c3cnn(CCN4CCOCC4)c3C)cc21` [Example 49, 3-(2,6-dichloro-3,5-dimethoxyphenyl)-1-ethyl-7-(5-methyl-1-(2-morpholinoethyl)-1H-pyrazol-4-yl)-1,6-naphthyridin-2(1H)-one], the IC50 in assay [1] and in assay [2] was 50 to 500 nM in each case.
`COc1cc(OC)c(Cl)c(-c2cc3cnc(-c4cnn(C)c4)cc3n(C3CCOCC3)c2=O)c1Cl` [Example 17, 3-(2,6-dichloro-3,5-dimethoxyphenyl)-7-(1-methyl-1H-pyrazol-4-yl)-1-(tetrahydro-2H-pyran-4-yl)-1,6-naphthyridin-2(1H)-one]: the figures for the IC50 in assay [1] and in assay [2] were 5 to 10 nM and 50 to 500 nM, respectively.
For `COc1cc(OC)c(F)c(-c2cc3cnc(-c4cccnc4)cc3n(C3CCOC3)c2=O)c1F` (stereo not shown) [Example 36, 3-(2,6-difluoro-3,5-dimethoxyphenyl)-7-(pyridin-3-yl)-1-(tetrahydrofuran-3-yl)-1,6-naphthyridin-2(1H)-one] the same measures were 10 to 50 nM and 50 to 500 nM.

As usually defined, the IC50 is the concentration that inhibits the measured activity by half.
